Source: ChEMBL document CHEMBL2311407, “Design and synthesis of diazatricyclodecane agonists of the G-protein-coupled receptor 119” (J Med Chem, 2013)

Test: Apparent intrinsic clearance in human liver microsomes
Format: ADME, Microsome
Details: read-out: CLH(app)

Row | CLint scaled | Structure (SMILES)
1 | > 30 mL/min/kg | CC[C@@H](C)OC(=O)N1C2CC3CC1CC(C2)N3c1ncnc(Oc2cccnc2C)c1C
2 | > 30 mL/min/kg | CC[C@H](C)OC(=O)N1C2CC3CC1CC(C2)N3c1ncnc(Oc2cccnc2C)c1C
3 | > 30 mL/min/kg | Cc1ncccc1Oc1ncnc(N2C3CC4CC2CC(C3)N4C(=O)OC2(C)CCC2)c1C
